Key:
[1] = tested on: (+)-MK801 binding site of the ionotropic NMDA receptor; assay: (3H)-(+)-MK801 receptor binding test on rat brain membrane homogenates; conditions: 10 μmol/l compound; ligand (3H)-(+)-MK801; rat brain membrane homogenate; triplicate batches
Protocol: The investigations for determining the affinity of the octahydrophenanthrene compounds of the general formula I according to the invention with the (+)-MK801 binding site of the ionotropic NMDA receptor was performed on brain membrane homogenates (homogenate of rat brain without the cerebellum, pons and medulla oblongata of male rats, Wistar strain, Charles River, WIGA GmbH, Sulzbach, Germany) as described in B. M. Baron et al., Journal of Pharmacology and Experimental Therapeutics, vol. 279, pages 62-68, 1996. The corresponding literature description is hereby introduced as a reference and is deemed to be part of the disclosure.
To this end, after separation of the cerebellum, pons and medulla oblongata, freshly prepared rat brains were disrupted for 1 minute with a Polytron homogeniser at 6,000 rpm in 50 mmol/l of tris/HCl (pH 7.7) with ice cooling and were then centrifuged for 15 min at 4° C. and 60,000 g. After decanting off and discarding the supernatant, resuspending the membrane pellet in 50 mmol/l of tris/HCl (pH 7.7) and disrupting it with a homogeniser at 2,000 rpm for 1 minute, centrifuging was again performed for 15 min at 4° C. and 60,000 g. The supernatant was again discarded and the membrane pellet was homogenised in 50 mmol/l of tris/HCl (pH 7.7) (2,000 rpm for 1 minute) and frozen in aliquots at −70° C.
Aliquots were in each case thawed for the receptor binding test and then centrifuged for 15 min at 4° C. and 60,000 g. After decanting off and discarding the supernatant, the membrane pellet was suspended for the binding test with binding test buffer and homogenised (2,000 rpm for 1 minute).
The buffer used for the binding test was a buffer of 5 mmol/l of tris/HCl (pH 7.7), supplemented with 30 μmol/l of glycine and 100 μmol/l of glutamic acid.
The radioactively labelled ligand used was […] of (^3H)-(+)-MK801 ((5R,10S)-(+)-5-methyl-10,11-dihydro-5H-dibenzo(a,d)cyclohepten-5,10-imine). The level of non-specific binding was determined in the presence of 10 μmol/l of non-radioactively labelled (+)-MK801.
were added in concentration series and the displacement of the radioactive ligand from its specific binding on the NMDA receptor was determined. Each of the triplicate batches was incubated for 40 minutes at 25° C. and then harvested by filtration through glass fibre filters (GF/B) in order to determine the radioactive ligand bound to the brain membrane homogenate. The radioactivity retained on the glass fibre filter disk was measured, after addition of scintillating liquid, in the β-counter.
The percentage inhibition of the specific binding of the ligand (^3H)-(+)-MK801 obtained from triplicate batches in the presence of in each case 10 μmol/l of the substituted octahydrophenanthrene compounds of the general formula I is stated in Table 1 and serves as a measure of the affinity of the compounds of the general formula I according to the invention with the (+)-MK801 binding site of the ionotropic NMDA receptor.

[2] = tested on: phenylquinone-induced writhing in mice; assay: Writhing test in mice (phenylquinone-induced writhing); format: in vivo; conditions: male mice, phenylquinone i.p., writhing counted 5-20 minutes after phenylquinone
Protocol: The analgesic efficacy of the compounds according to the invention was investigated by phenylquinone-induced writhing in mice, modified after I.C. Hendershot, J. Forsaith in J. Pharmacol. Exp. There. 125, 237-240 (1959). Male mice weighing 25-30 g were used for this purpose. Groups of 10 animals per substance dose received, 1.0 minute after intravenous administration of the substances tested, 0.3 ml/mouse of a 0.02% aqueous solution of phenylquinone (phenylbenzoquinone, Sigma, Deisenhofen; solution prepared with addition of 5% of ethanol and stored in a water bath at 45° C.) administered intraperitoneally. The animals were then placed individually in observation cages. A push button counter was used to record the number of pain-induced stretching movements (writhing reactions=straightening of the torso with stretching of the rear extremities) for 5-20 minutes after phenylquinone administration. The control was provided by animals who received only physiological common salt solution with phenylquinone.
All the substances were tested at the standard dosage of 10 mg/kg. The percentage inhibition (% inhibition) of the writhing reactions by a substance was calculated according to the following formula: [formula]

CN(C)CC1CC(C(C)(C)C)CC2c3ccccc3CCC12.Cl (stereo not drawn) [Compound 6, 6-tert-Butyl-8-dimethylaminomethyl-4b,5,6,7,8,8a,9,10-octahydrophenanthrene hydrochloride]
Percentage inhibition of (+)-MK801 binding at 10 μM [1]: 31%

COc1ccc2c(c1)C1CCCC(CN(C)C)C1CC2.Cl (stereo not drawn) [Compound 2, 8-Dimethylaminomethyl-3-methoxy-4b,5,6,7,8,8a,9,10-octahydrophenanthrene hydrochloride]
Percentage inhibition of (+)-MK801 binding at 10 μM [1]: 56%
Percentage inhibition of writhing reaction at 10 mg/kg i.v. [2]: 75%

CN(C)CC1CCCC2c3cc(O)ccc3CCC12.Cl (stereo not drawn) [Compound 3, 8-Dimethylaminomethyl-4b,5,6,7,8,8a,9,10-octahydrophenanthren-3-ol hydrochloride]
Percentage inhibition of (+)-MK801 binding at 10 μM [1]: 40%
Percentage inhibition of writhing reaction at 10 mg/kg i.v. [2]: 85%

CN(C)CC1CCCC2c3ccccc3CCC12.Cl (stereo not drawn) [Compound 1, 8-Dimethylaminomethyl-4b,5,6,7,8,8a,9,10-octahydrophenanthrene hydrochloride]
Percentage inhibition of (+)-MK801 binding at 10 μM [1]: 46%
Percentage inhibition of writhing reaction at 10 mg/kg i.v. [2]: 74%

CN(C)CC1CCCC2c3ccc(F)cc3CCC12.Cl (stereo not drawn) [Compound 4, 8-Dimethylaminomethyl-2-fluoro-4b,5,6,7,8,8a,9,10-octahydrophenanthrene hydrochloride]
Percentage inhibition of (+)-MK801 binding at 10 μM [1]: 36%

CN(C)CC1CCCC2c3cc(Cl)ccc3CCC12.Cl (stereo not drawn) [Compound 5, 8-Dimethylaminomethyl-3-chloro-4b,5,6,7,8,8a,9,10-octahydrophenanthrene hydrochloride]
Percentage inhibition of (+)-MK801 binding at 10 μM [1]: 28%

From patent publication US20040162432A1, “Substituted octahydrophenanthrene compounds and use thereof as NMDA antagonists” (priority 2001, published 2004)
